Measured values published in patent publication US20230339970A1, “CASEIN KINASE 1 DELTA MODULATORS” (priority 2020, published 2023).
Each block holds one compound with its values, some of them ahead of it.

Key:
human CSNK1D = molecular target: T1, human CSNK1D (Homo sapiens, UniProt P48730); test: Whole Cell nBRET CSNK1D Binding Assay; details: living CHO cells stably expressing human CSNK1D tagged with nanoluciferase; NanoBret tracer 130 nM; 2 hours at 37 C
T1 construct: expressed in transfected cells

[1] = molecular target: T2, human recombinant GST cleaved CSNK1D (Homo sapiens, UniProt P48730); test: Purified Enzyme Assay (ADP-Glo CSNK1D Kinase Assay); format: biochemical; details: 2 nM CSNK1D; peptide substrate 150 μM; ATP 20 μM; 45 minutes at room temperature
T2 construct: GST (cleaved yes); purchased University of Dundee clone DU 19064
Procedure, shortened: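 GST-cleaved human recombinant CSNK1D phosphorylates peptide PLSRTL-pS-VASLPGL with ATP; compounds added in dose-response, 45 min at room temperature. ADP formed measured by ADP-Glo luminescence and converted to percent activity.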

T1 sequence (P48730 whole entry): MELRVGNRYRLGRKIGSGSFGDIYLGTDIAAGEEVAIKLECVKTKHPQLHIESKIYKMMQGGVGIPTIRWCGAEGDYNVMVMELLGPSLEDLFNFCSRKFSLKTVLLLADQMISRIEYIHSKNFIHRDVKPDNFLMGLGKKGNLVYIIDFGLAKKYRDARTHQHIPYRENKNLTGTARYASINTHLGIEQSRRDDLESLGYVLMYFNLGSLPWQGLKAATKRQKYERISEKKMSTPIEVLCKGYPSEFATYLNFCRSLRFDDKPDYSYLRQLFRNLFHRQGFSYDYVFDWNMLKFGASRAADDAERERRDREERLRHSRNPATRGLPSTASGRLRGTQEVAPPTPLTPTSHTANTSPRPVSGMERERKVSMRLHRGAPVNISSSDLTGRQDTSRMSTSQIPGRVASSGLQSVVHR
T2 sequence (P48730 whole entry): as above

SMILES: Fc1ccc(-c2nn3c(c2-c2ccnc4[nH]ncc24)CC(F)(F)C3)cc1 [Example 230, 4-[5,5-Difluoro-2-(4-fluorophenyl)-4,6-dihydropyrrolo[1,2-b]pyrazol-3-yl]-1H-pyrazolo[3,4-b]pyridine]
IC50 (human CSNK1D): 74 nM | IC50 [1]: 5 nM

SMILES: Cc1cc(-c2c(-c3ccc(F)cn3)nn3c2COC(C)(C)C3)c2c(C)n[nH]c2n1 [Example 156, 3-(3,6-Dimethyl-1H-pyrazolo[3,4-b]pyridin-4-yl)-2-(5-fluoro-2-pyridyl)-6,6-dimethyl-4,7-dihydropyrazolo[5,1-c][1,4]oxazine]
IC50 (human CSNK1D): 87 nM | IC50 [1]: 5 nM

SMILES: Cc1cc(-c2c(-c3ccc(F)cn3)nn3c2O[C@@H](C)C[C@H]3C)c2cn[nH]c2n1 (single isomer, unassigned) [Example 206, (5*S,7*R)-2-(S-Fluoro-2-pyridyl)-5,7-dimethyl-3-(6-methyl-1H-pyrazolo[3,4-b]pyridin-4-yl)-6,7-dihydro-5H-pyrazolo[5,1-b][1,3]oxazine]
IC50 (human CSNK1D): 249 nM | IC50 [1]: 14 nM

SMILES: Cc1cc(-c2c(-c3ccc(F)cn3)nn3c2O[C@H](C)CC3)c2cn[nH]c2n1 (single isomer, unassigned) [Example 201, (*R)-2-(5-Fluoro-2-pyridyl)-5-methyl-3-(6-methyl-1H-pyrazolo[3,4-b]pyridin-4-yl)-6,7-dihydro-5H-pyrazolo[5,1-b][1,3]oxazine]
IC50 (human CSNK1D): 246 nM | IC50 [1]: 17 nM

SMILES: CC(=O)Nc1cc(-c2c(-c3ccc(F)cc3)nn3c2CC[C@H]2[C@@H]3C2(F)F)ccn1 (stereo in doubt) [Example 350, N-(4-((5a*S,6a*R)-6,6-Difluoro-2-(4-fluorophenyl)-5,5a,6,6a-tetrahydro-4H-cyclopropa[e]pyrazolo[1,5-a]pyridin-3-yl)pyridin-2-yl)acetamide]
IC50 (human CSNK1D): 1 nM | IC50 [1]: 1 nM

SMILES: Fc1ccc(-c2nn3c(c2-c2ccnc4[nH]ncc24)CCC(F)(F)C3)nc1 [Example 44, 4-(6,6-Difluoro-2-(5-fluoropyridin-2-yl)-4,5,6,7-tetrahydropyrazolo[1,5-a]pyridin-3-yl)-1H-pyrazolo[3,4-b]pyridine]
IC50 (human CSNK1D): 296 nM | IC50 [1]: 16 nM

SMILES: COCC1(F)CCc2c(-c3cc(C)nc4[nH]ccc34)c(-c3ccc(F)cn3)nn2C1 (single isomer, unassigned) [Example 299, (*R)-4-[6-Fluoro-2-(5-fluoro-2-pyridyl)-6-(methoxymethyl)-5,7-dihydro-4H-pyrazolo[1,5-a]pyridin-3-yl]-6-methyl-1H-pyrrolo[2,3-b]pyridine]
IC50 (human CSNK1D): 303 nM | IC50 [1]: 20 nM

SMILES: Fc1ccc(-c2nn3c(c2-c2ccnc4[nH]ncc24)COC2(C3)CC2(F)F)nc1 (single isomer, unassigned) [Example 433, (*R)-1′. 1′-Difluoro-2-(5-fluoro-2-pyridyl)-3-(1H-pyrazolo[3,4-b]pyridin-4-yl)spiro[4,7-dihydropyrazolo[5,1-c][1,4]oxazine-6,2′-cyclopropane]]
IC50 (human CSNK1D): 79 nM | IC50 [1]: 4 nM

SMILES: C[C@@H]1OCc2c(-c3ccnc4[nH]ncc34)c(-c3ccc(F)cc3)nn2[C@@H]1C (single isomer, unassigned) [Example 113, (6*S,7*R)-2-(4-Fluorophenyl)-6,7-dimethyl-3-(1H-pyrazolo[3,4-b]pyridin-4-yl)-6,7-dihydro-4H-pyrazolo[5,1-c][1,4]oxazine]
IC50 (human CSNK1D): 113 nM | IC50 [1]: 10 nM

SMILES: Fc1ccc(-c2nn3c(c2-c2ccnc4[nH]nc(Cl)c24)CC2(C3)CC2(F)F)nc1 (single isomer, unassigned) [Example 257, (*R)-3-(3-Chloro-1H-pyrazolo[3,4-b]pyridin-4-yl)-1′,1′-difluoro-2-(5-fluoro-2-pyridyl)spiro[4,6-dihydropyrrolo[1,2-b]pyrazole-5,2′-cyclopropane]]
IC50 (human CSNK1D): 10800 nM | IC50 [1]: 197 nM

SMILES: C[C@@H]1OCc2c(-c3ccnc4[nH]ncc34)c(-c3ccc(F)cc3)nn2[C@H]1C (single isomer, unassigned) [Example 115, (6*S,7*S)-2-(4-Fluorophenyl)-6,7-dimethyl-3-(1H-pyrazolo[3,4-b]pyridin-4-yl)-6,7-dihydro-4H-pyrazolo[5,1-c][1,4]oxazine]
IC50 (human CSNK1D): 74 nM | IC50 [1]: 6 nM

SMILES: CC(=O)Nc1cc(-c2c(-c3ccc(F)cn3)nn3c2OCCC3)ccn1 [Example 183, N-(4-(2-(5-Fluoropyridin-2-yl)-6,7-dihydro-5H-pyrazolo[5,1-b][1,3]oxazin-3-yl)pyridin-2-yl)acetamide]
IC50 (human CSNK1D): 220 nM | IC50 [1]: 7 nM

SMILES: Fc1ccc(-c2nn3c(c2-c2ccnc4[nH]ncc24)CC[C@@H]2[C@H]3C2(F)F)cc1 (stereo in doubt) [Example 356, (5a*R,6a*S-6,6-Difluoro-2-(4-fluorophenyl)-3-(1H-pyrazolo[3,4-b]pyridin-4-yl)-5,5a,6,6a-tetrahydro-4H-cyclopropa[e]pyrazolo[1,5-a]pyridine]
IC50 (human CSNK1D): 2 nM | IC50 [1]: 1 nM

SMILES: Fc1ccc(-c2nn3c(c2-c2c(F)cnc4[nH]ncc24)COC2(C3)CC2(F)F)nc1 (single isomer, unassigned) [Example 435, (*R)-1′. 1′-Difluoro-3-(5-fluoro-1H-pyrazolo[3,4-b]pyridin-4-yl)-2-(5-fluoro-2-pyridyl)spiro[4,7-dihydropyrazolo[5,1-c][1,4]oxazine-6,2′-cyclopropane]]
IC50 (human CSNK1D): 49 nM | IC50 [1]: 5 nM

SMILES: Fc1ccc(-c2nn3c(c2-c2c(F)cnc4[nH]ncc24)CC[C@@H]2C[C@@H]23)nc1 (single isomer, unassigned) [Example 343, (5a*R,6a*S)-3-(5-Fluoro-1H-pyrazolo[3,4-b]pyridin-4-yl)-2-(5-fluoropyridin-2-yl)-5,5a,6,6a-tetrahydro-4H-cyclopropa[e]pyrazolo[1,5-a]pyridine]
IC50 (human CSNK1D): 96 nM | IC50 [1]: 5 nM

SMILES: Fc1ccc(-c2nn3c(c2-c2ccnc4[nH]ncc24)COCC3)nc1 [Example 78, 2-(5-Fluoro-2-pyridyl)-3-(1H-pyrazolo[3,4-b]pyridin-4-yl)-6,7-dihydro-4H-pyrazolo[5,1-c][1,4]oxazine]
IC50 (human CSNK1D): 337 nM | IC50 [1]: 15 nM

SMILES: Cc1nc2[nH]ncc2c(-c2c(-c3ccc(F)cn3)nn3c2CC[C@@H]2C[C@@H]23)c1F (single isomer, unassigned) [Example 344, (5a*R,6a*S)-3-(5-Fluoro-6-methyl-1H-pyrazolo[3,4-b]pyridin-4-yl)-2-(5-fluoropyridin-2-yl)-5,5a,6,6a-tetrahydro-4H-cyclopropa[e]pyrazolo[1,5-a]pyridine]
IC50 (human CSNK1D): 44 nM | IC50 [1]: 4 nM

The remaining compounds from weak to strong by IC50 (human CSNK1D), led by results:

IC50 (human CSNK1D): 738 nM | IC50 [1]: 41 nM
SMILES: CCC(=O)Nc1cc(-c2c(-c3ccc(F)cn3)nn3c2COC(C)(C)C3)c(C)cn1 [Example 379, N-(4-(2-(5-Fluoropyridin-2-yl)-6,6-dimethyl-6,7-dihydro-4H-pyrazolo[5,1-c][1,4]oxazin-3-yl)-5-methylpyridin-2-yl)propionamide]

IC50 (human CSNK1D): 279 nM | IC50 [1]: 21 nM
SMILES: Cc1cc(-c2c(-c3ccc(F)cc3)nn3c2CC2(C3)CC2(F)F)c2cn[nH]c2n1 (single isomer, unassigned) [Example 253, (*R)-1′.1′-Difluoro-2-(4-fluorophenyl)-3-(6-methyl-1H-pyrazolo[3,4-b]pyridin-4-yl)spiro[4,6-dihydropyrrolo[1,2-b]pyrazole-5,2′-cyclopropane]]

IC50 (human CSNK1D): 243 nM | IC50 [1]: 20 nM
SMILES: Clc1ccc(-c2nn3c(c2-c2ccnc4[nH]ncc24)COCC3)cc1 [Example 67, 2-(4-Chlorophenyl)-3-(1H-pyrazolo[3,4-b]pyridin-4-yl)-6,7-dihydro-4H-pyrazolo[5,1-c][1,4]oxazine]

IC50 (human CSNK1D): 113 nM | IC50 [1]: 12 nM
SMILES: Fc1ccc(-c2nn3c(c2-c2ccncc2)OCCC3)cc1 [Example 438, 2-(4-Fluorophenyl)-3-(4-pyridyl)-6,7-dihydro-5H-pyrazolo[5,1-b][1,3]oxazine]

IC50 (human CSNK1D): 82 nM | IC50 [1]: 8 nM
SMILES: Fc1ccc(-c2nn3c(c2-c2ccnc4[nH]ncc24)CC(F)(F)CC3)cc1 [Example 46, 4-(5,5-Difluoro-2-(4-fluorophenyl)-4,5,6,7-tetrahydropyrazolo[1,5-a]pyridin-3-yl)-1H-pyrazolo[3,4-b]pyridine]

IC50 (human CSNK1D): 59 nM | IC50 [1]: 3 nM
SMILES: CC1CCn2nc(-c3ccc(F)cn3)c(-c3ccnc4[nH]ncc34)c2O1 (single isomer, unassigned) [Example 198, (*S)-2-(5-Fluoro-2-pyridyl)-5-methyl-3-(1H-pyrazolo[3,4-b]pyridin-4-yl)-6,7-dihydro-5H-pyrazolo[5,1-b][1,3]oxazine]

IC50 (human CSNK1D): 58 nM | IC50 [1]: 5 nM
SMILES: Cc1cc(-c2c(-c3ccc(F)cc3)nn3c2C(C)(C)CC3)c2cn[nH]c2n1 [Example 246, 4-[2-(4-Fluorophenyl)-4,4-dimethyl-5,6-dihydropyrrolo[1,2-b]pyrazol-3-yl]-6-methyl-1H-pyrazolo[3,4-b]pyridine]

IC50 (human CSNK1D): 22 nM | IC50 [1]: 1 nM
SMILES: Cc1cc(-c2c(-c3ccc(F)cc3)nn3c2CCC3)c2cn[nH]c2n1 [Example 5, 4-(2-(4-Fluorophenyl)-5,6-dihydro-4H-pyrrolo[1,2-b]pyrazol-3-yl)-6-methyl-1H-pyrazolo[3,4-b]pyridine]

IC50 (human CSNK1D): 20 nM | IC50 [1]: 2 nM
SMILES: Cc1nc2[nH]ncc2c(-c2c(-c3ccc(F)cn3)nn3c2OCC2(CC2)C3)c1F [Example 463, 3′-(5-Fluoro-6-methyl-1H-pyrazolo[3,4-b]pyridin-4-yl)-2′-(5-fluoropyridin-2-yl)-5′H,7′H-spiro[cyclopropane-1,6′-pyrazolo[5,1-b][1,3]oxazine]]

IC50 (human CSNK1D): 11 nM | IC50 [1]: 2 nM
SMILES: [2H]C([2H])([2H])C1(C([2H])([2H])[2H])Cn2nc(-c3ccc(F)cn3)c(-c3c(F)cnc4[nH]ccc34)c2CO1 [Example 397, 3-(5-Fluoro-1H-pyrrolo[2,3-b]pyridin-4-yl)-2-(5-fluoropyridin-2-yl)-6,6-bis(methyl-d3)-6,7-dihydro-4H-pyrazolo[5,1-c][1,4]oxazine]
